This is an account of results in patent US4328134A, “Anorexigenic peptides” (priority 1980, dated 1982).

Test [1] has as its system mice. Conditions: mice fasted for 17 hours; cited from earlier work.
In test [2] the test system is dogs. Description: sham-feeding in dogs with esophageal, gastric and pancreatic fistulae: gastric and pancreatic secretion.
The conditions of test [3]: in vivo; cited from earlier work.
For test [4], the system named is mice. As to conditions: cited from earlier work.

glucagon: the “effect on food intake” value in test [1] is given as “ineffective”. As for `O=C[C@H](O)[C@@H](O)[C@H](O)[C@H](O)CO` [glucose], the “effect on food intake” value in test [1] is reported as “ineffective”.

As to “bovine serum albumin: bovine serum albumin”, in test [1], the “effect on food intake” value is on record as “ineffective”. caerulein: in test [2] (0.5 mcg/kg/hour of caerulein), the “maximal pancreatic protein secretion” value was 650±86 mg/15 mins. For the compound `NCCc1c[nH]cn1` [histamine], the maximal acid output in test [2] (320 mcg/kg/hour of histamine) was determined as 13.55±1.8 mEq/15 mins.

“H-(pyro)-Glu-His-GlyOH [appetite-retarding peptide]”: in test [3], the “acute effect on blood glucose” value was “no acute effect” and the “acute effect on serum insulin levels” value was “no acute effect”. The “body weight, minimum” value in test [4] (12 nmole daily for 20 days, dropped from a mean of 35 g) is listed as 24 g. The food consumption in test [4] (12 nmole injected daily for 20 days, reduced from 5.7) is 3.0 g per day. Besides, the “duration of reduced food consumption” value in test [4] (12 nmole injected daily for 20 days) was “about 6 months”. Consider secretin, for which the “effect on food intake” value in test [1] was “ineffective”.
